Data on 6 compounds can be found in patent US20090004185A1, “AMINO-SUBSTITUTED QUINAZOLINE DERIVATIVES AS INHIBITORS OF BETA-CATENIN/TCF-4 PATHWAY AND CANCER TREATMENT AGENTS” (WYETH, priority 2007, published 2009).

What is called IC50 is the concentration that gives 50% inhibition. A word on the melting point: it is the temperature of the solid-liquid transition.

Where only a bound is given, the exact number is not on record here.

The subject of one data set is β-catenin/Tcf-4. Nature of the data set: cells. The following applies: Homo sapiens, 24 hours of incubation with compound, ratio Firefly/Renilla luciferase. The format is cell-based. In outline:
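SW480-derived lines with integrated reporters (Tcf-4-driven firefly luciferase; SV40 firefly as specificity control; SV40 Renilla for cell number/toxicity), treated 24 hours with titrated compounds, final 0.316% DMSO. Dual-luciferase read-out; firefly/Renilla ratio as % of control, duplicate plates, IC50 (nM) from curve fit.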

In a further data set the test system is SV40-Luc. Nature of the data set: SV40-Luc control luciferase reporter assay, SV 5A8 cell line (SV40-Luc and SV40-R-Luc), control for non-specific inhibitors. Type of data set: cell-based, human. The conditions noted are these: Homo sapiens, SV5A8, 24 h, SV 5A8 cells derived from SW480; 24 hours of incubation with compound; ratio Firefly/Renilla luciferase. In outline: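 Compound exposure lasted 24 h, starting 20-24 h after seeding 1×10^4 cells/well, with titrated doses and 0.316% final DMSO. Readout was dual firefly/Renilla luminescence; Renilla under an SV40 promoter corrects for cell number and toxicity, and SV 5A8 (SV40 firefly) flags non-specific inhibitors versus Tcf-4-driven lines 33.13 and 22C11. IC50s came from the F/R ratio (% of control).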
(A reporter such as luciferase makes a cellular process visible.)

Where [1] appears, read: SW480, 24 h, Tcf 33.13 cells derived from SW480.
The mark [2] stands for this setting: Tcf22C11, 24 h, Tcf 22C11 cells derived from SW480.

On to `Cc1ccc2c(NCc3ccc(NC(=O)c4ccc(F)cc4)cc3)nc(NC3CCN(Cc4ccccc4)CC3)nc2c1` [Example 233, N-{4-[({2-[(1-benzylpiperidin-4-yl)amino]-7-methylquinazolin-4-yl}amino)methyl]phenyl}-4-fluorobenzamide], for which the melting point lay in the range of 135 to 138 °C. In the data set with β-catenin/Tcf-4 (setting [1]), the IC50 was more than 2180 nM. In the data set with β-catenin/Tcf-4 (setting [2]), the IC50 is more than 4350 nM. In the data set on SV40-Luc, the IC50 was more than 4350 nM.
`Cc1ccc2c(NCc3ccc(NC(=O)c4ccc(F)cc4)cc3)nc(N3CCCCCC3)nc2c1` [Example 235, N-(4-{[(2-azepan-1-yl-7-methylquinazolin-4-yl)amino]methyl}phenyl)-4-fluorobenzamide] returned a melting point of 135 to 139 °C. In addition, the IC50 with β-catenin/Tcf-4 (setting [1]) was 448 nM. Besides, the IC50 in the data set with β-catenin/Tcf-4 (setting [2]) was found to be 451 nM. Also, in the data set on SV40-Luc, the IC50 was more than 5170 nM.
For `CNc1nc(NCc2ccc(NC(=O)c3ccc(Br)cc3)cc2)c2ccc(C)cc2n1` [Example 238, 4-bromo-N-[4-({[7-methyl-2-(methylamino)quinazolin-4-yl]amino}methyl)phenyl]benzamide], in that order: 295 to 298 °C, 255 nM, 284 nM and more than 1310 nM.
For `CNc1nc(NCc2ccc(NC(=O)c3ccc(C)nc3)cc2)c2ccc(C)cc2n1` [Example 240, 6-methyl-N-[4-({[7-methyl-2-(methylamino)quinazolin-4-yl]amino}methyl)phenyl]nicotinamide], in that order: 257 to 259 °C, 793 nM, 900 nM and more than 3030 nM.
For `Cc1ccc2c(NCc3ccc(NC(=O)C4CCN(Cc5ccc(F)c(F)c5)CC4)cc3)nc(N(C)C)nc2c1` [Example 255, 1-(3,4-difluorobenzyl)-N-[4-({[2-(dimethylamino)-7-methylquinazolin-4-yl]amino}methyl)phenyl]piperidine-4-carboxamide], in that order: 97 to 99 °C, 106 nM, 196 nM and more than 2300 nM.
`Cc1ccc2c(NCc3ccc(NC(=O)C4CCN(Cc5ccc(C(F)(F)F)cc5)CC4)cc3)nc(N(C)C)nc2c1` [Example 256, N-[4-({[2-(dimethylamino)-7-methylquinazolin-4-yl]amino}methyl)phenyl]-1-[4-(trifluoromethyl)benzyl]piperidine-4-carboxamide] gave a melting point of 126 to 128 °C. Also, the IC50 in the data set on β-catenin/Tcf-4 (setting [1]) is 706 nM. Moreover, the IC50 in the data set on β-catenin/Tcf-4 (setting [2]) worked out at 967 nM. Moreover, the IC50 with SV40-Luc was more than 8670 nM.
